Experimental data reported in patent US12616689B2, “Regimens of tafenoquine for prevention of malaria in malaria-naive subjects” (60 Degrees Pharmaceuticals, Inc., priority 2014, dated 2026).
One block for each compound: values may come before it.

Assays:
[1] = in vivo; cited from earlier work
[2] = test system: P. berghei; conditions: cited from earlier work
[3] = test system: Plasmodium falciparum malaria; conditions: regimens of 50, 100, 200 and 400 mg; cited from earlier work
[4] = test system: chloroquine sensitive and resistant P. vivax; conditions: Aotus monkeys; cited from earlier work
[5] = cited from earlier work
[6] = test system: blood stages of P. falciparum; conditions: cited from earlier work
[7] = Population PK analysis (NONMEM one-compartment model) of plasma tafenoquine concentrations pooled from ten Phase I/II/III clinical studies, with bootstrap evaluation; format: in vivo, human; parameters: key to ωCL^2, variance of inter-individual random effect on CL, final NONMEM estimate / ωV^2, variance of inter-individual random effect on V, final NONMEM estimate / ωKa^2, variance of inter-individual random effect on Ka, final NONMEM estimate / ωCL^2, Bootstrap Estimate / ωV^2, Bootstrap Estimate / ωKa^2, Bootstrap Estimate: variance of ηi, where Pi = P·exp(ηi)
Protocol: Pharmacokinetic (PK) data from several studies (Phase I/II/III) was modeled to establish a consolidated model of tafenoquine and to determine relevant covariates. More specifically, analysis was performed using data obtained from ten Phase I/II/III clinical studies of tafenoquine (U.S. Army Study Numbers: 1, 2, 3, 4, 5, 14, 15, 33, 44 and 58). Table 2 summarizes the key features of each of the studies included in the pooled dataset such as the study type and design, dose and dosing regimen, population, and sample collection schemes. A total of 866 subjects were included in the population analysis. Ninety-three percent of the subjects were male.
The tafenoquine concentrations of plasma samples across the ten studies were analyzed using a validated high-performance liquid chromatography-mass spectrometry method (HPLC-MS) or HPLC with fluorescence detection as previously described (see, Kocisko D A, Walsh D S, Eamsila C, Edstein M D. Measurement of tafenoquine (WR 238605) in human plasma, and venous and capillary blood by high-pressure liquid chromatography. Ther Drug Monit. 2000; 22:184-189; Charles B G, Miller A K, Nasveld P E, Reid M G, Harris I E, Edstein M D. Population pharmacokinetics of tafenoquine during malaria prophylaxis in healthy subjects. Antimicrob Agents Chemother. 2007; 51:2709-2715.
Population PK analyses were carried out using NONMEM version 7.1.2, PDx-Pop version 4.2 (Icon Development Solutions, Hanover, MD) and Intel Visual Fortran Compiler version 12 on a Microsoft Windows XP platform. Plasma tafenoquine concentrations, demographic information and clinical laboratory results from ten studies were used to build a pooled NONMEM input data file for the current population PK analysis. The data were prepared for analysis using SAS software version 9.1.3 (SAS Institute Inc., Cary, NC). Actual dosing and actual blood sampling times, when available, were used for the analysis. Plasma tafenoquine concentrations that were below or equal to the limit of quantification were excluded from the analysis.
Based on the PK profile of tafenoquine from previous modeling efforts (Shanks G D, Oloo A J, Aleman G M, et al. A new primaquine analogue, tafenoquine (WR 238605), for prophylaxis against Plasmodium falciparum malaria. Clin Infect Dis. 2001; 33:1968-1974; Obaldia N 3rd, Rossan R N, Cooper R D, et al. WR 238605, chloroquine, and their combinations as blood schizonticides against a chloroquine-resistant strain of Plasmodium vivax in Aotus monkeys. Am J Trop Med Hyg. 1997; 56:508-10), a one-compartment PK model with first-order absorption and elimination processes was selected to describe best the pharmacokinetics of tafenoquine. As part of the modeling process, a two-compartment PK model with first-order absorption and elimination process was also explored and discarded. The one-compartment PK model was specified in the NONMEM control file and was parameterized in terms of apparent clearance (CL/F), apparent volume of distribution (V/F) and absorption rate constant (Ka) using the PREDPP ADVAN2 with TRANS2 subroutine in NONMEM. First-order conditional estimation (FOCE) with interaction between variance of inter-individual variability and the variance of residual error was used as the estimation method. Inter-individual variability was best described by an exponential error model, as shown below: Pi=Pexp(ηi) • where: • Pi is the estimated parameter for the i^th individual. • P is the population value for the parameter. • ηi are inter-individual random effects for the i^th individual for parameter P and were assumed to be independent and symmetrically distributed with a zero mean and a variance ω^2.
Different structural models (additive, proportional, exponential and combined additive and proportional) were investigated for residual unexplained variability (RUV). RUV was best described by a proportional error model, as shown below: […]

[8] = test system: malaria; conditions: cited from earlier work
[9] = final PK model, coefficient of variation

SMILES: COc1cc(NC(C)CCCN)c2ncccc2c1 (stereo not drawn) [primaquine]
Half-life [1]: hours

COVCL,V, Bootstrap Estimate ([7]; 1000 bootstrap samples): 0.0250
θCL, Bootstrap Estimate ([7]; 1000 bootstrap samples): 4.15
θCL-AGE, Bootstrap Estimate ([7]; 1000 bootstrap samples): −0.200
θCL-WT, Bootstrap Estimate ([7]; 1000 bootstrap samples): 0.554
θKA, Bootstrap Estimate ([7]; 1000 bootstrap samples): 0.351
θV, Bootstrap Estimate ([7]; 1000 bootstrap samples): 2482
θV-FOOD, Bootstrap Estimate ([7]; 1000 bootstrap samples): 0.810
θV-WT, Bootstrap Estimate ([7]; 1000 bootstrap samples): 0.774
σ^2, Bootstrap Estimate ([7]; 1000 bootstrap samples): 0.0486
ωCL^2, Bootstrap Estimate ([7]; 1000 bootstrap samples): 0.0536
ωKa^2, Bootstrap Estimate ([7]; 1000 bootstrap samples): 0.283
ωV^2, Bootstrap Estimate ([7]; 1000 bootstrap samples): 0.0521
Inter-individual variability associated with CL/F before inclusion of covariates WT and age ([7]; base model, without covariates): 26.5%
Inter-individual variability of V/F before inclusion of covariates WT and meal condition ([7]; base model, without covariates): 29.6%
Vd/F ([7]; both sexes, human, plasma, oral, final PK model, WT 75 kg, fasted, read-out: θV, population apparent volume of distribution (V/F), final NONMEM estimate): 2470 L
COVCL,V, covariance, final NONMEM estimate ([7]; final PK model): 0.0289
θV-WT, exponent of weight effect on V/F, final NONMEM estimate ([7]; final PK model): 0.781
σ^2, variance of the proportional residual random effect, final NONMEM estimate ([7]; final PK model): 0.0488
ωCL^2, variance of inter-individual random effect on CL, final NONMEM estimate ([7]; final PK model): 0.0555
ωKa^2, variance of inter-individual random effect on Ka, final NONMEM estimate ([7]; final PK model): 0.293
ωV^2, variance of inter-individual random effect on V, final NONMEM estimate ([7]; final PK model): 0.0583
θV-FOOD, food effect on V/F, final NONMEM estimate ([7]; final PK model, FOOD = 0 fasted, 1 fed): 0.822
Inter-individual variability of CL/F [7, 9]: 23.6%
Inter-individual variability of Ka [7, 9]: 54.1%
Inter-individual variability of V/F [7, 9]: 24.1%
Ka, first-order absorption rate constant, final NONMEM estimate ([7]; oral, final PK model): 0.359 h⁻¹
θCL, population apparent clearance (CL/F), final NONMEM estimate ([7]; oral, final PK model, WT 75 kg, age 25 y): 4.17 L/h
SMILES: COc1cc(C)c2c(Oc3cccc(C(F)(F)F)c3)c(OC)cc(NC(C)CCCN)c2n1 (stereo not drawn) [tafenoquine, -[2,6-Dimethoxy-4-methyl-5-[3-(trifluoromethyl)phenoxy]quinolin-8-yl]pentane-1,4-diamine]
Activity against P. berghei in mice in vivo [2]: active
Reduction in microscopically confirmed parasitemia [3]: statistically significant reductions
Half-life [1]: weeks
Cure of chloroquine sensitive and resistant P. vivax infections [4]: cured
Incidence of gastrointestinal adverse events relative to 400 mg once daily or BID for three days (total dose 1200 mg) ([5]; 200 mg once daily for three days (total dose 600 mg)): approximately half
Threshold dose considered safe in G6PD-deficient individuals ([5]; G6PD-deficient individuals): 300 mg
Safety and tolerability of a loading dose of 400 mg once daily for three days ([5]; G6PD-normal individuals): safe in G6PD-normal individuals in several clinical studies but exhibits gastrointestinal intolerability
Tolerability of a 400 mg dose ([5]; human, in vivo): less well tolerated
Activity against blood stages of P. falciparum in vitro [6]: active
Protective efficacy ([8]; 200 mg daily for three days, then 200 mg weekly, 95% CI 93%-100%): 100%
Malaria breakthroughs ([8]; reference regimen, non-immune, primarily Caucasian Australian soldiers): no malaria breakthroughs were observed
